The test system of one data set is HEK293T cells. The experiment in a line: In vitro Luc-mRNA transfection, luciferase luminescence expression in HEK293T cells. Format: cell-based, human. Further details: unit not given here. The settings on record: Table 16; HEK 293T cells, 125 ng/well, n=3. Summed up:
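HEK293T cells were transfected with nucleoside-modified firefly luciferase mRNA at 125 ng/well delivered in the test particles. TransIT and MC3-based LNPs at equal mRNA dose served as comparators. After 24 h (18-20 h in some runs) at 37° C the cells were lysed, and luciferase luminescence was read on a luminometer, in triplicate.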

A short description of data set [1]: Stability of DNPs by DLS after storage at 5° C. The data set is classed as physicochemical. On the set-up: key: Excellent: the original sizes and distribution types remained almost the same after storage; Good: the original sizes and distribution types changed slightly (size difference was less than 100 nm) or the original size remained almost the same but the DLS curve showed more size distributions after storage. How it is done: The stability of the DNPs as assayed by DLS. All the samples are prepared in acetate buffer. The stabilities of the constructs were ranked: Excellent (in bold)—the original sizes and distribution remains almost the same after storage; Good—the original relatively big sizes became smaller or broad size distribution became narrower; Not stable—the original relatively big sizes or broad size distribution remained almost the similar level, or the original relatively small sizes became bigger or narrow size distribution became broader.

For another data set, the system named is lung. The experiment in a line: In vivo mRNA delivery, IVIS imaging of organs: lung. On the set-up: species or system mice; key to Organs with luminescence: lung: strong: Strong meant the luminescence intensity in that organ was relatively high, compared to other organs; weak: Weak meant the luminescence intensity in that organ was relatively low, compared to other organs. The settings on record: mice; for Organs with luminescence: lung: Table 17, IVIS, 4-6 h after injection, intensity relative to other organs. Here is the method:
(§1) The exposure time was 1 min.
(§2) Tissue luminescence signal was measured on the IVIS imaging system using an exposure time of 60 seconds using medium binning (binning=8) to ensure that the signal obtained was within operative detection range. […] Bioluminescence imaging was performed as described above.
Tissue luminescence signal was measured on the IVIS imaging system using a certain exposure time (60, 30 or 15 seconds) and medium binning (binning=8) to ensure that the signal obtained was within operative detection range.

The test system of another data set is BALB/c mice. The experiment in a line: In vivo mRNA delivery in mice with DNPs, whole-body bioluminescence imaging (IVIS). Here is the method:
as §1
Luminescence characterization for in vivo transfection experiments employed bioluminescence imaging with an IVIS Spectrum imaging system (PerkinElmer, Waltham, MA). Mice were anesthetized with 3% of isoflurane (Piramal Healthcare Limited) and intraperitoneally (i.p.) administered with D-luciferin (Regis Technologies) at a dose of 150 mg/kg of body weight. Ten minutes post administration of D-luciferin, mice were placed on the imaging platform while being maintained on isoflurane via a nose cone and imaged using an exposure time of 60 seconds. […] To quantify luminescent flux, an oval ROI was placed over each organ of interest and analyzed.
as §2
Luminescence Characterization for In Vivo Transfection Experiments: bioluminescence imaging was performed with an IVIS Spectrum imaging system (PerkinElmer, Waltham, MA).

SMILES strings stand for the structures.

The text below walks through data of US20240252677A1, “ONE-COMPONENT DELIVERY SYSTEM FOR NUCLEIC ACIDS” (The Trustees of the University of Pennsylvania, priority 2021, published 2024).

Regarding `CCCCCCCCCCCOc1cc(COC(=O)c2cc(OCCOCCOCCCC(=O)CCCN3CCCCC3)c(OCCOCCOCCOCc3ccccc3)c(OCCOCCOCCOC(=O)CCCN3CCCCC3)c2)cc(OCCCCCCCCCCC)c1` [IAJD 111], in the data set on HEK293T cells, the Luminescence was determined as 41. In data set [1] (after 75 days at 5° C.), the Ranking of stability result is listed as “Excellent”. Also, the “Organs with luminescence: lung” value in the data set with lung is “Lung (strong),”. Also, in the data set with lung (Luc-mRNA DNPs), the “activity in lung (in words)” value is on record as “very high activity to lung”.
Turning to `CCCCCCCCCCCOc1cc(COC(=O)CCCN2CCN(CCO)CC2)cc(OCCCCCCCC)c1` [IAJD 113, 3-(Octyloxy)-5-(undecyloxy)benzyl 4-(4-(2-hydroxyethyl)piperazin-1-yl)butanoate], in the data set with HEK293T cells, the Luminescence is on record as 78,118. Besides, the “In vivo activity (total flux, p/s)” value with BALB/c mice (Table 19, nonsymmetric IAJDs) is on record as 1.70 × 10^7 p/s. In data set [1] (after 70 days at 5° C.), the Ranking of stability result is “Excellent”.
With `CCCCCCCCCCCOc1cc(COC(=O)CCCN2CCN(C)CC2)cc(OCCCCCCCCCC)c1` [IAJD 114, 3-(Decyloxy)-5-(undecyloxy)benzyl 4-(4-methylpiperazin-1-yl)butanoate], in the data set with HEK293T cells, the Luminescence is recorded as 1,580. The “In vivo activity (total flux, p/s)” value in the data set with BALB/c mice (Table 19, nonsymmetric IAJDs) is 3.56 × 10^6 p/s. The Ranking of stability entry in data set [1] (after 75 days at 5° C.) is “Good”. For the same compound, the “Organs with luminescence: lung” value in the data set on lung is given as “Lung (weak),”.
`CCCCCCCCCCCOc1cc(COC(=O)CCCN2CCN(CCO)CC2)cc(OCCCCCCCCCC)c1` [IAJD 115, 3-(Decyloxy)-5-(undecyloxy)benzyl 4-(4-(2-hydroxyethyl)piperazin-1-yl)butanoate]: in the data set on HEK293T cells, the Luminescence was 390,021. For the same compound, in the data set on BALB/c mice (Table 19, nonsymmetric IAJDs), the “In vivo activity (total flux, p/s)” value is listed as 4.59 × 10^6 p/s. Further, the Ranking of stability entry in data set [1] (after 70 days at 5° C.) was “Excellent”. Further, in the data set with lung, the “Organs with luminescence: lung” value is recorded as “Lung (weak),”.
Turning to `CCCCCCCCCCCCCOc1cc(COC(=O)CCCN2CCN(C)CC2)cc(OCCCCCCCCCCC)c1` [IAJD 116, 3-(Tridecyloxy)-5-(undecyloxy)benzyl 4-(4-methylpiperazin-1-yl)butanoate], the Luminescence with HEK293T cells was 192,213. Further, in the data set on BALB/c mice (Table 19, nonsymmetric IAJDs), the “In vivo activity (total flux, p/s)” value is given as 2.38 × 10^7 p/s. For the same compound, the Ranking of stability result in data set [1] (after 62 days at 5° C.) is “Excellent”. Further, the “Organs with luminescence: lung” value in the data set with lung is recorded as “Lung (weak),”.
Turning to `CCCCCCCCCCCCCOc1cc(COC(=O)CCCN2CCN(CCO)CC2)cc(OCCCCCCCCCCC)c1` [IAJD 117, 3-(Tridecyloxy)-5-(undecyloxy)benzyl 4-(4-(2-hydroxyethyl)piperazin-1-yl)butanoate], in the data set on HEK293T cells, the Luminescence is 516,522. The “In vivo activity (total flux, p/s)” value in the data set with BALB/c mice (Table 19, nonsymmetric IAJDs) was 8.64 × 10^6 p/s. In data set [1] (after 70 days at 5° C.), the Ranking of stability result is listed as “Excellent”. Also, the “Organs with luminescence: lung” value in the data set with lung was “Lung (weak),”.
Take `CCCCCCCCCCCCCCCOc1cc(COC(=O)CCCN2CCN(C)CC2)cc(OCCCCCCCCCCC)c1` [IAJD 118, 3-(Pentadecyloxy)-5-(undecyloxy)benzyl 4-(4-methylpiperazin-1-yl)butanoate]: in the data set on HEK293T cells, the Luminescence is listed as 568,354. Also, in the data set on BALB/c mice (Table 19, nonsymmetric IAJDs), the “In vivo activity (total flux, p/s)” value was 1.46 × 10^7 p/s. Besides, the Ranking of stability result in data set [1] (after 75 days at 5° C.) was “Excellent”. Moreover, the “Organs with luminescence: lung” value in the data set on lung is listed as “Lung (weak),”.
With `CCCCCCCCCCCCCCCOc1cc(COC(=O)CCCN2CCN(CCO)CC2)cc(OCCCCCCCCCCC)c1` [IAJD 119, 3-(Pentadecyloxy)-5-(undecyloxy)benzyl 4-(4-(2-hydroxyethyl)piperazin-1-yl)butanoate], in the data set on HEK293T cells, the Luminescence was 565,906. In the data set on BALB/c mice (Table 19, nonsymmetric IAJDs), the “In vivo activity (total flux, p/s)” value was 8.22 × 10^7 p/s. Besides, in data set [1] (after 62 days at 5° C.), the Ranking of stability result is reported as “Good”. In addition, the “Organs with luminescence: lung” value in the data set on lung is “Lung (weak),”.
Take `CCCCCCCCCCCCCCCCOc1cc(COC(=O)CCCN2CCN(CCO)CC2)cc(OCCCCCCCCCCC)c1` [IAJD 120, 3-(Hexadecyloxy)-5-(undecyloxy)benzyl 4-(4-(2-hydroxyethyl)piperazin-1-yl)butanoate]: the Luminescence in the data set with HEK293T cells is 443,836. Also, the “In vivo activity (total flux, p/s)” value with BALB/c mice (Table 19, nonsymmetric IAJDs) is reported as 2.48 × 10^7 p/s. Also, the Ranking of stability entry in data set [1] (after 70 days at 5° C.) is reported as “Excellent”.
For the compound `CCCCCCCCCCCOc1cc(COC(=O)CCCN2CCN(CCO)CC2)cc(OCCCCCCCCC)c1` [IAJD 122, 3-(Nonyloxy)-5-(undecyloxy)benzyl 4-(4-(2-hydroxyethyl)piperazin-1-yl)butanoate], the Luminescence in the data set on HEK293T cells was 55,101. Further, the “In vivo activity (total flux, p/s)” value in the data set on BALB/c mice (Table 19, nonsymmetric IAJDs) is 2.50 × 10^7 p/s. Moreover, the Ranking of stability entry in data set [1] (after 62 days at 5° C.) was “Excellent”. In addition, the “Organs with luminescence: lung” value with lung is reported as “Lung (weak),”.
For `CCCCCCCCCCCCOc1cc(COC(=O)CCCN2CCN(CCO)CC2)cc(OCCCCCCCCCCC)c1` [IAJD 124, 3-(Dodecyloxy)-5-(undecyloxy)benzyl 4-(4-(2-hydroxyethyl)piperazin-1-yl)butanoate], in that order: 145,115, 3.77 × 10^7 p/s, “Good” and “Lung (weak),”.
In the case of `CCCCCCCCCCCCCCOc1cc(COC(=O)CCCN2CCN(CCO)CC2)cc(OCCCCCCCCCCC)c1` [IAJD 125, 3-(Tetradecyloxy)-5-(undecyloxy)benzyl 4-(4-(2-hydroxyethyl)piperazin-1-yl)butanoate], in the data set on HEK293T cells, the Luminescence is 119,405. Besides, the “In vivo activity (total flux, p/s)” value in the data set with BALB/c mice (Table 19, nonsymmetric IAJDs) is 2.15 × 10^8 p/s; in the data set with BALB/c mice (Table 20, nonsymmetric IAJDs and MC3-Luc-mRNA), 2.15 × 10^8 p/s. Besides, in data set [1] (after 62 days at 5° C.), the Ranking of stability entry is “Excellent”. Also, the “Organs with luminescence: lung” value in the data set with lung is “Lung (weak),”.
Regarding `CCCCCCCCCCCCCCCCCOc1cc(COC(=O)CCCN2CCN(C)CC2)cc(OCCCCCCCCCCC)c1` [IAJD 126, 3-(Heptadecyloxy)-5-(undecyloxy)benzyl 4-(4-methylpiperazin-1-yl)butanoate], the Luminescence in the data set on HEK293T cells was found to be 675. In addition, the “In vivo activity (total flux, p/s)” value with BALB/c mice (Table 19, nonsymmetric IAJDs) is reported as 3.21 × 10^7 p/s. In data set [1] (after 70 days at 5° C.), the Ranking of stability entry was “Excellent”. Besides, in the data set with lung, the “Organs with luminescence: lung” value is “Lung (weak),”.
Take `CCCCCCCCCCCCCCOc1cc(CNC(=O)CCCN2CCN(C)CC2)cc(OCCCCCCCCCCC)c1` [IAJD 133, 4-(4-Methylpiperazin-1-yl)-N-(3-(tetradecyloxy)-5-(undecyloxy)benzyl)butanamide]: in the data set with HEK293T cells, the Luminescence was 107,307. Besides, the Ranking of stability entry in data set [1] (after 42 days at 5° C.) is recorded as “Excellent”. In the data set with lung, the “Organs with luminescence: lung” value was “Lung (strong),”.
Consider `CCCCCCCCCCCCCCCCCOc1cc(COC(=O)CCCN2CCN(CCO)CC2)cc(OCCCCCCCCCCCCCCC)c1` [IAJD 152, 3-(Heptadecyloxy)-5-(pentadecyloxy)benzyl 4-(4-(2-hydroxyethyl)piperazin-1-yl)butanoate], for which the Luminescence in the data set on HEK293T cells is listed as 88,202. In the data set with BALB/c mice (Table 19, nonsymmetric IAJDs), the “In vivo activity (total flux, p/s)” value was 1.97 × 10^7 p/s. The Ranking of stability result in data set [1] (after 35 days at 5° C.) is recorded as “Excellent”.
With `CCCCCCCCCCCOc1cc(COC(=O)c2cc(OCCOCCOCCCC(=O)CCCN3CCCCC3)c(OCCOCCOCCOCc3ccccc3)c(OCCOCCOCCOC(=O)CCCN3CCCCC3)c2)cc(OCC(CC)CCCC)c1` (stereo not drawn) [IAJD 155], the Luminescence with HEK293T cells was 74. Besides, the Ranking of stability result in data set [1] (after 19 days at 5° C.) is on record as “Excellent”. Further, the “Organs with luminescence: lung” value with lung is listed as “Lung (strong),”.
For `CCCCCCCCCCCCCCOc1cc(COC(=O)c2cc(OCCOCCOCCCC(=O)CCCN3CCCCC3)c(OCCOCCOCCOCc3ccccc3)c(OCCOCCOCCOC(=O)CCCN3CCCCC3)c2)cc(OCCCCCCCCCCC)c1` [IAJD 156], in that order: 59, “Excellent” and “Lung (strong)”.
As to `CCCCCCCCCCCCCCCOc1cc(COC(=O)c2cc(OCCOCCOCCCC(=O)CCCN3CCCCC3)c(OCCOCCOCCOCc3ccccc3)c(OCCOCCOCCOC(=O)CCCN3CCCCC3)c2)cc(OCCCCCCCCCCC)c1` [IAJD 157], the Luminescence in the data set on HEK293T cells is 47. Besides, in data set [1] (after 19 days at 5° C.), the Ranking of stability entry was “Excellent”. Also, the “Organs with luminescence: lung” value in the data set on lung is recorded as “Lung (strong)”.
For `CCCCCCCCCCCCCCCCCOc1cc(COC(=O)c2cc(OCCOCCOCCCC(=O)CCCN3CCCCC3)c(OCCOCCOCCOCc3ccccc3)c(OCCOCCOCCOC(=O)CCCN3CCCCC3)c2)cc(OCCCCCCCCCCC)c1` [IAJD 158], in that order: 83, “Excellent” and “Lung (strong)”.
